Experiments:
[1] = target: T1, GIPR on the islets of Langerhans (Mus musculus, UniProt Q0P543); assay: In vitro binding to isolated islets; conditions: islets of C3H mice, 24 hours, 37 °C, + 25 µg unlabeled GIP1-42, mean ± SD
T1 construct: Islets of Langerhans were isolated from donor C3H mice by collagenase digestion; from tissue; host or cells: isolated islets of Langerhans from C3H mice
T1 sequence (Q0P543 19-460): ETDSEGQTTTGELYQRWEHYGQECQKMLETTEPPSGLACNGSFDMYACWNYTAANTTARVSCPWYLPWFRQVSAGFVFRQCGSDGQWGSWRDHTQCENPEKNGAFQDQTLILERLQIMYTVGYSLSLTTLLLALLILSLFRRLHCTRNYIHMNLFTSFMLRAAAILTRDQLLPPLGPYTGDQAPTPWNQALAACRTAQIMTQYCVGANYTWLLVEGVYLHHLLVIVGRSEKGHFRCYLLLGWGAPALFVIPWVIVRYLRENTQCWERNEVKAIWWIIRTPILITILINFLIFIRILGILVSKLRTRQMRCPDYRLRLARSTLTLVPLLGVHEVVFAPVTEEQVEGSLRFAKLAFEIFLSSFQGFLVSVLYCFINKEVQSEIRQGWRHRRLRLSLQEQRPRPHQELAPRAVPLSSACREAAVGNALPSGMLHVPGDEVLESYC
Description: Islets of Langerhans were isolated from donor C3H mice by collagenase digestion as follows. Mice were euthanized by CO2/O2 suffocation and 2 ml of ice cold RPMI 1640 containing 1 mg/ml collagenase type V (Sigma Aldrich) were infused via the pancreatic duct in situ. After dissection, the perfused pancreata were collected in serum free medium containing collagenase and kept on ice until digestion. Pancreata were digested for 12 min at 37 °C. Digestion was stopped by adding RPMI medium containing 10% FCS, 2 mM L-glutamine, 100 U/ml penicillin and 100 U/ml streptomycin (complete RPMI). After washing, digested pancreata were passed through a mesh. Afterwards, islets were purified on a discontinuous Ficoll gradient (densities: 1.108; 1.096; 1.037; Cellgro by Mediatech Inc, Manassas, VA, USA) by centrifugation at 625 × g for 16 min without brake. Islets were collected from the intersection of the second and third layer and remaining Ficoll was removed by washing with complete RPMI. Isolated islets were cultured overnight in complete RPMI medium in a humidified atmosphere containing 5% CO2 at 37 °C.
After overnight recovery from the isolation procedure, islets from the donor C3H mice were collected, counted and resuspended in complete RPMI. […] After incubation, islets were washed extensively with binding buffer and islet-associated radioactivity was measured in a well type gamma counter.

[2] = system: subcutaneous BHK-GIPR tumors; assay: Biodistribution study, BHK-GIPR tumor mice; format: in vivo, BALB/c nude mice; conditions: biodistribution studies in BALB/c nude mice, i.v.
Description: All animal experiments were approved by the Animal Welfare Body of the Radboud University, Nijmegen, The Netherlands and carried out in accordance with their guidelines. Six to eight weeks old, female BALB/c nude mice and C3H mice were purchased from Janvier labs (Le Genest Saint Isle, France). For all in vivo experiments, 6-8 weeks old female BALB/c nude mice were injected subcutaneously in the right shoulder with 0.2 ml of a 2.5 × 10^7 cells/ml suspension of BHK-GIPR transfected cells or with 0.2 ml of a 2.5 × 10^7 cells/ml suspension of NES2Y cells mixed with matrigel (2:1) in the right shoulder. When the tumor reached a diameter of 2-5 mm, mice were randomly divided in groups.
BALB/c nude mice bearing BHK-GIPR transfected tumors were injected intravenously with approximately 3 MBq (peptide dose 0.2 µg = 0.04 nmol) of [Lys^37(^111In-DTPA)]N-acetyl-GIP1-42 via the tail vein. At various time points after injection (1, 4 and 24 hours), mice were euthanized by CO2/O2 suffocation and blood, tumor and other relevant tissues were dissected, weighed and measured in a well type gamma counter. The percentage injected dose per gram (%ID/g) was calculated for each tissue. To determine whether the GIP1-42 uptake was GIPR mediated, 25 µg of unlabeled GIP1-42 was co-injected in a separate group (n = 5) and mice were euthanized four hours post-injection. BALB/c nude mice bearing NES2Y tumors (n = 5) were injected intravenously with approximately 3 MBq (peptide dose 0.2 µg = 0.04 nmol) of [Lys^37(^111In-DTPA)]N-acetyl-GIP1-42 via the tail vein. One hour after injection, mice were euthanized by CO2/O2 suffocation and blood, tumor and other relevant tissues were dissected, weighed and measured in a well type gamma counter. The percentage injected dose per gram (%ID/g) was determined for each tissue. To determine whether the GIP1-42 uptake was GIPR mediated, 25 µg of unlabeled GIP1-42 was co-injected in a separate group (n = 2) and mice were euthanized one hours post-injection.

Question: `CC[C@H](C)[C@H](NC(=O)[C@H](CO)NC(=O)[C@H](Cc1ccc(O)cc1)NC(=O)[C@H](CC(=O)O)NC(=O)[C@H](CO)NC(=O)[C@@H](NC(=O)[C@H](Cc1ccccc1)NC(=O)[C@@H](NC(=O)CNC(=O)[C@H](CCC(=O)O)NC(=O)[C@H](C)NC(=O)[C@H](Cc1ccc(O)cc1)NC(C)=O)[C@@H](C)O)[C@@H](C)CC)C(=O)N[C@@H](C)C(=O)N[C@@H](CCSC)C(=O)N[C@@H](CC(=O)O)C(=O)N[C@@H](CCCCN)C(=O)N[C@H](C(=O)N[C@@H](Cc1c[nH]cn1)C(=O)N[C@@H](CCC(N)=O)C(=O)N[C@@H](CCC(N)=O)C(=O)N[C@@H](CC(=O)O)C(=O)N[C@@H](Cc1ccccc1)C(=O)N[C@H](C(=O)N[C@@H](CC(N)=O)C(=O)N[C@@H](Cc1c[nH]c2ccccc12)C(=O)N[C@@H](CC(C)C)C(=O)N[C@@H](CC(C)C)C(=O)N[C@@H](C)C(=O)N[C@@H](CCC(N)=O)C(=O)N[C@@H](CCCCN)C(=O)NCC(=O)N[C@@H](CCCCN)C(=O)N[C@@H](CCCCN)C(=O)N[C@@H](CC(N)=O)C(=O)N[C@@H](CC(=O)O)C(=O)N[C@@H](Cc1c[nH]c2ccccc12)C(=O)N[C@@H](CCCCNC(=O)CN(CCN(CCN(CC(=O)O)CC(=O)O)CC(=O)O)CC(=O)O)C(=O)N[C@@H](Cc1c[nH]cn1)C(=O)N[C@@H](CC(N)=O)C(=O)N[C@H](C(=O)N[C@H](C(=O)N[C@@H](CCC(N)=O)C(=O)O)[C@@H](C)O)[C@@H](C)CC)C(C)C)[C@@H](C)CC` [[Lys^37(^111In-DTPA)]N-acetyl-GIP1-42, metal not drawn] was tested. Which “tracer bound to 200 isolated islets with excess unlabeled GIP1-42” value [1] did it give?
Answer: The value was 0.03 ± 0.01 fmol.

Question: What about the blood clearance [2] of the same compound?
Answer: Its blood clearance is “cleared from the blood very rapidly”.

From paper PMC5811606, “Characterization of ^111In-labeled Glucose-Dependent Insulinotropic Polypeptide as a Radiotracer for Neuroendocrine Tumors” (Scientific Reports, 2018)
